In series [1] the target is recombinant human 5-HT6 receptor (Homo sapiens, UniProt P50406). Briefly: Radioligand binding studies: competition for [3H]LSD binding in membranes of HEK293 cells expressing the receptor.

The structures appear in SMILES notation. Structures can show the parent of a compound that is named as a salt.

From patent publication US7196088B2, “Substituted tetrahydroisoquinolines and uses thereof” (Roche Palo Alto LLC, priority 2003, dated 2007) come the findings set out here.

One may read the melting point as the temperature, or range, at which the solid turns liquid. As usually defined, the Ki is the dissociation constant of the complex between target and ligand, obtained from inhibition or displacement.

Sequence of recombinant human 5-HT6 receptor (P50406 whole entry): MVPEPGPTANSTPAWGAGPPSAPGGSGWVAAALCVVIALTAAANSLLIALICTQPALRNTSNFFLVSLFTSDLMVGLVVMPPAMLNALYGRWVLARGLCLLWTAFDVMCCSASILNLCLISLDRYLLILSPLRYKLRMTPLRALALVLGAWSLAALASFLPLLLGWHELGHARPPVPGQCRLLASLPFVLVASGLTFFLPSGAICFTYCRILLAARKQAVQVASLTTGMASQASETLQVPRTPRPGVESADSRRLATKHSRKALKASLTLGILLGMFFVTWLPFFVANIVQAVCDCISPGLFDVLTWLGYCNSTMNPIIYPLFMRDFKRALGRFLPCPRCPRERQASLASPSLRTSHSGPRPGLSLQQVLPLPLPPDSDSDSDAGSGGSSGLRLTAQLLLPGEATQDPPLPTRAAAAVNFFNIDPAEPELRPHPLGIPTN

In turn, `O=S(=O)(c1ccccc1)N1CCc2c(cccc2N2CCNCC2)C1` (as salt: trifluoroacetic acid salt) yielded a melting point of 214 to 216 °C.

`O=S(=O)(c1cccc(Cl)c1Cl)N1CCc2c(cccc2N2CCNCC2)C1` [Compound 16, 2-(2,3-Dichloro-benzenesulfonyl)-5-pipe-razin-1-yl-1,2,3,4-tetra-hydroisoquinoline]: in series [1], the Ki is 0.0427 nM.
